According to patent US20030186410A1, “Novel (r)-2-hydroxy-3-phenylpropionate (d-phenyllactate) dehydrogenase and gene encoding the same” (priority 2000, published 2003):

Test system: D-PLDH
Experiment: Relative enzyme activity of partially purified enzyme solution with different reaction substrates
Type: biochemical, Mycelia sterilia
Conditions: partially purified enzyme solution (Mono Q10/10) from pDPLDH-1-carrying E. coli, compound used as reaction substrate
Method: A 150 μl portion of buffer solution A containing 250 μM NADPH and 250 μM phenylpyruvic acid was dispensed into wells of a 96-well microtiter plate, 50 μl each of the crude enzyme solution was added and mixed immediately using a pipette, and a change in absorption at 340 nm at 26° C. was measured. The measurement was carried out using an Absorption Microassay Reader BioLumin 960 (Molecular Dynamics) to trace a decrease in absorption with time after the start of the reaction. The amount of the enzyme which oxidized 1 μmol of NADPH per minute was set to be one unit. Results are shown in Table 1 as the enzyme activity of the crude enzyme solution.
Further, the obtained crude enzyme solution was processed using Mono Q10/10 under the conditions described in Example 1-2 to prepare a partially purified enzyme solution. This partially purified enzyme solution was applied onto a 96-well microtiter with different concentrations of the substrate, phenylpyruvic acid, to measure enzyme activity. Further, enzyme activity was also measured with an alternative substrate, pyruvic acid, in place of phenylpyruvic acid. […]

| SMILES | Relative reaction rate (rate with phenylypyruvic acid = 100) |
| --- | --- |
| O=C(O)C(=O)Cc1ccccc1 [Phenylpyruvic acid, 2-oxo-3-phenylpropionic acid] | 100 |
| CC(=O)C(=O)O [Pyruvic acid] | 10 |
